According to US10857201B2, “NNIF and nNIF-related peptides and related methods” (UNIVERSITY OF UTAH RESEARCH FOUNDATION, priority 2016, dated 2020):
“Also recorded” adds a separate entry of the source.

How the values were obtained:
recombinant PAD4 = target: T1, recombinant PAD4 (Homo sapiens, UniProt Q9UM07); test: Cell-free PAD4 deimination assay; type: biochemical; conditions: for PAD4 activity: cell-free, synthetic substrate, nNIF 1 nM, Cl-amidine 10 μM; for order of potency of inhibition of PAD4: initial comparison of NRPs
T1 construct: purchased CAYMAN
Method: One way ANOVA with Tukey's post hoc testing, ***P<0.001.
nNIF inhibition of PAD4 activity was determined using a PAD4 inhibitor screening assay kit (CAYMAN™). Briefly, nNIF (1 nM) was incubated with recombinant PAD4 and PAD4 enzyme substrate (2 mM) in PAD4 assay reagent for 30 minutes at 37° C. […] The reaction was stopped with PAD4 Stop Solution and detected using an included ammonia detector assay. Ammonia detector fluorescence was measured at 470 nm following excitation at 405 nm on a SPECTRAMAX™ M5 fluorescence plate reader (MOLECULAR DEVICES™).

[1] = test system: C57BL/6 mice challenged with LPS; test: Mouse model of systemic inflammation induced by LPS (endotoxemia), survival; type: in vivo
Method: Animals with no treatments or given LPS alone were studied in parallel (n≥10 mice for each condition). **P<0.01, log-rank (Mantel-Cox) statistical tool used. The survival difference between nNIF-LPS and CRISPP-LPS compared to CRISPP-SCR-LPS trended toward significance (§ P=0.051).
Control mice were i.p. injected with saline alone. Fluid resuscitation and antibiotic treatment were not used in these experiments. Survival was assessed over 50 or 72 hour intervals. All mice were included in the final survival analysis.

[2] = test system: neutrophil extracellular trap (NET) formation; test: In vitro NET formation by stimulated human PMNs (live cell imaging, NET-associated histone H3 release); type: cell-based; conditions: for PMA-stimulated NET deployment: PMA 20 nM, 1 hour preincubation; for PMA-stimulated NET deployment / NET formation triggered by heme: peptides 1 nM; for NET formation triggered by LPS: adult PMNs preincubated with agent, LPS 100 ng/mL, 1 hour; for NET formation triggered by heme: heme 1 μM; for relative inhibition of NETosis (order of potency): initial comparison of NRPs
Method: Qualitative assessment of NET formation was performed as previously reported (see Yost C C, et al., Blood. 2009; 113 (25):6419-27 and McInturff A M, et al., Blood. 2012; 120 (15):3118-25). Briefly, primary PMNs isolated from preterm infants, healthy term infants, and healthy adults (2×10^6 cells/mL) were incubated with control buffer or stimulated with indicated agonists or bacteria for 1 hour at 37° C. in 5% CO2/95% air on glass coverslips coated with poly-L-lysine. For selected experiments, primary PMNs were pre-incubated with autologous plasma, cord blood plasma, nNIF (0.2-70 nM), CRISPP (0.2-70 nM), nNIF-SCR (1 nM), or CRISPP-SCR (1 nM) for one hour prior to stimulation. After pre-incubation and/or stimulation, PMNs were gently washed with PBS and incubated with a mixture of cell permeable (SYTO® Green, MOLECULAR PROBES®) and impermeable (SYTOX® Orange, MOLECULAR PROBES®) DNA fluorescent dyes. Confocal microscopy was accomplished using a FV1000 IX81 confocal microscope and FLUOVIEW™ software (OLYMPUS™). Both 20× and 60× objectives were used. Z-series images were obtained at a step size of 1 μm over a range of 20 μm for each field. FLUOVIEW™ and ADOBE™ PHOTOSHOP™ CS2 software was used for image processing.
Using BSL 2 safety protocols, primary PMNs isolated from healthy adults (2×10^6 cells/mL) were incubated with mock infection buffer or live dengue virus (M010.05) as for live cell imaging. After a 1-hour incubation, the infected PMNs were fixed with 2% p-FA for 10 minutes prior to incubation with fluorescently-labeled, cell-permeable and cell-impermeable DNA dyes, and imaged as for live cell imaging using confocal microscopy.
NET-associated histone H3 content was determined as previously described (see McInturff A M, et al., Blood. 2012; 120 (15):3118-25). After live cell imaging of control and stimulated primary PMNs (2×10^6/mL; various agonists), the cells were incubated with PBS containing DNase (40 U/mL) for 15 minutes at room temperature to break down and release NETs formed in response to stimulation. The supernatant was gently removed and centrifuged at 420×g for 5 minutes. The cell-free supernatant was then mixed 3:1 with 4× Laemmli buffer prior to western blotting. A polyclonal primary antibody against human histone H3 protein (CELL SIGNALING®) and infrared-conjugated secondary antibodies (LI-COR®) were used. Imaging and densitometry were performed on the ODYSSEY® infrared imaging system)(LI-COR®). This assay was previously validated as a surrogate for NET formation under in vitro conditions (see McInturff A M, et al., Blood. 2012; 120 (15):3118-25) as employed in the present studies.
Without being bound by any specific theory, it was hypothesized that placentally expressed HTRA1, a serine protease, regulates the formation of NET-inhibitory peptides through cleavage of AAT. To test this hypothesis, term and preterm placenta were assessed for HTRA1 expression via western blotting. HTRA1 and AAT plasma expression from term and preterm infants and adults were determined by ELISA. Bioactive (0.5 μg) or placental eluted HTRA1 was incubated with AAT (8 μM) for 18 hours at 37° C. Carboxy-terminus fragments of AAT were detected using western blotting and mass spectrometry. The reaction products were incubated for 1 hour with PMNs isolated from healthy adults prior to LPS stimulation (100 ng/mL) and assessed for NET formation using live cell imaging. Reactive oxygen species were assessed using flow cytometry, chemotaxis using a modified Boyden chamber assay, and bacterial killing using E. coli.

[3] = test system: LPS-induced peritoneal NET formation; test: Mouse model of LPS-induced peritonitis (in vivo NET formation); conditions: C57BL/6 mice, i.p. LPS
Method: C57/BL6 or Swiss-Webster mice were pretreated in blinded fashion with CRISPP (10 mg/kg), nNIF (10 mg/kg), or CRISPP-SCR (10 mg/kg) by i.p. injection 1 hour prior to infection (E. coli, 4.5×10^7 cfu/mouse, i.p.) or inoculation (LPS, 25 mg/kg, i.p.) (SIGMA-ALDRICH®). Control mice were injected with saline alone. The mice were sacrificed in a CO2 chamber 3 hours post-infection/inoculation, and the peritoneal fluid and membrane samples were harvested. Briefly, the abdomen was disinfected and opened in the midline without injuring the muscle. The peritoneal cavity was lavaged with sterile saline solution (1 mL) and analyzed for in vivo NET formation, bacteriology, and leukocyte accumulation. NETs in the peritoneal fluid were qualitatively and quantitatively analyzed using live cell imaging with confocal microscopy and NET-associated histone H3 release assays. NETs on the serosal surface of the peritoneal membrane were assessed quantitatively using live cell imaging, followed by standardized grid analysis of five randomly selected high-power visual fields per tissue sample (IMAGEJ™ software, NIH). Peritoneal bacterial colony forming unit (cfu) counts were quantified by permeabilizing all recovered leukocytes with 0.1% Triton X-100 for 10 minutes and performing serial dilutions and bacterial cultures on 5% sheep blood agar plates (HARDY DIAGNOSTICS™). After a 24-hour incubation, bacterial counts were determined. Total leukocyte counts in the peritoneal lavage were determined in Neubauer chambers using an optical microscope after dilution in Turk's solution (2% acetic acid). Differential leukocyte analysis was performed using a 60× oil immersion objective to assess morphology of cyto-centrifuged cells stained with May-Gruenwald-Giemsa dye. All mice were included in the final analysis.

T1 sequence (Q9UM07 whole entry): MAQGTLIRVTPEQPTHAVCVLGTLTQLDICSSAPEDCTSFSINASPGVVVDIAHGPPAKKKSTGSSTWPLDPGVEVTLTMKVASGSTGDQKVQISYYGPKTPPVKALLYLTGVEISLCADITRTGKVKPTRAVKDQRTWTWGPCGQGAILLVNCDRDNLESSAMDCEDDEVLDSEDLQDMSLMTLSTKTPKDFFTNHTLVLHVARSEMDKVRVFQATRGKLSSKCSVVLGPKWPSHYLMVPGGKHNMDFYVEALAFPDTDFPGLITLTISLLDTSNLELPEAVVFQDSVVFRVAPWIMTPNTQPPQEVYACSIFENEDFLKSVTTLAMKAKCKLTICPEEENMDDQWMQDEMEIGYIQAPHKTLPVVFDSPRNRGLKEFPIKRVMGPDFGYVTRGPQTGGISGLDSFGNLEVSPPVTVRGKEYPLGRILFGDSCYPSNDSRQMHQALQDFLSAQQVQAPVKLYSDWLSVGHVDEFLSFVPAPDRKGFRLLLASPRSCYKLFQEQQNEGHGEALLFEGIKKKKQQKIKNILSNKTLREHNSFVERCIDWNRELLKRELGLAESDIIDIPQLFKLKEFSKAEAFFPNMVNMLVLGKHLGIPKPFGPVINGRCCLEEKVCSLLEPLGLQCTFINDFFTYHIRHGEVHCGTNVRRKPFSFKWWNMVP

Substance	PAD4 activity (recombinant PAD4)	order of potency of inhibition of PAD4 (recombinant PAD4)	survival advantage at 72 hours ([1]; second experiment, compared to LPS alone)	PMA-stimulated NET deployment [2]	NET formation triggered by LPS [2]	NET formation triggered by heme [2]	relative inhibition of NETosis (order of potency) [2]	LPS-induced peritoneal NET formation [3]	animals alive at 50 hours ([1]; i.p. LPS, first experiment, n=6 per group)	NET formation induced by live Staphylococcus aureus ([2]; S. aureus MOI 100:1, peptide 1 nM)	NET generation stimulated by dengue virus ([2]; dengue virus MOI 0.05:1, peptide 1 nM)
KFNKPFVFLMIEQNTKSPLFMGKVVNPTQ (listed as Homo sapiens) [nNIF]	blocked its activity	nNIF ≈CRISPP>A1ATm^358	durable	blocked	potent NET-inhibitory activity; also recorded: inhibits NET formation; also recorded: inhibited LPS-stimulated NET deployment; also recorded: inhibit NET formation at nanomolar concentrations	inhibit	nNIF ≈CRISPP>A1ATm^358	inhibited	–	–	–
M_IPPEVKFNKPFVFLMIDQNTKVPLFMGK [CRISPP, consensus peptide based on factors present in the blood of patients with cancer]	inhibited	nNIF ≈CRISPP>A1ATm^358	–	blocked	inhibits NET formation; also recorded: inhibited LPS-stimulated NET deployment; also recorded: inhibit NET formation at nanomolar concentrations	inhibit	nNIF ≈CRISPP>A1ATm^358	inhibited	all	inhibited	inhibited
